Experimental data: publication PMC7374097, “UGT2B17 modifies drug response in chronic lymphocytic leukaemia” (British Journal of Cancer, 2020)
Where two headings read alike, the source gives them in different places.

B1: UGT1A4 (Homo sapiens) (protein)
chain: GKVLVVPTDGSPWLSMREALRELHARGHQAVVLTPEVNMHIKEEKFFTLTAYAVPWTQKEFDRVTLGYTQGFFETEHLLKRYSRSMAIMNNVSLALHRCCVELLHNEALIRHLNATSFDVVLTDPVNLCGAVLAKYLSIPAVFFWRYIPCDLDFKGTQCPNPSSYIPKLLTTNSDHMTFLQRVKNMLYPLALSYICHTFSAPYASLASELFQREVSVVDLVSYASVWLFRGDFVMDYPRPIMPNMVFIGGINCANGKPLSQEFEAYINASGEHGIVVFSLGSMVSEIPEKKAMAIADALGKIPQTVLWRYTGTRPSNLANNTILVKWLPQNDLLGHPMTRAFITHAGSHGVYESICNGVPMVMMPLFGDQMDNAKRMETKGAGVTLNVLEMTSEDLENALKAVINDKSYKENIMRLSSLHKDRPVEPLDLAVFWVEFVMRHKGAPHLRPAAHDLTWYQYHSLDVIGFLLAVVLTVAFITFKCCAYGYRKCLGKKGRVKKAHKSKTH
B2: UGT2B17 (Homo sapiens) (protein)
chain: GKVLVWPTEYSHWINMKTILEELVQRGHEVIVLTSSASILVNASKSSAIKLEVYPTSLTKNDLEDFFMKMFDRWTYSISKNTFWSYFSQLQELCWEYSDYNIKLCEDAVLNKKLMRKLQESKFDVLLADAVNPCGELLAELLNIPFLYSLRFSVGYTVEKNGGGFLFPPSYVPVVMSELSDQMIFMERIKNMIYMLYFDFWFQAYDLKKWDQFYSEVLGRPTTLFETMGKAEMWLIRTYWDFEFPRPFLPNVDFVGGLHCKPAKPLPKEMEEFVQSSGENGIVVFSLGSMISNMSEESANMIASALAQIPQKVLWRFDGKKPNTLGSNTRLYKWLPQNDLLGHPKTKAFITHGGTNGIYEAIYHGIPMVGIPLFADQHDNIAHMKAKGAALSVDIRTMSSRDLLNALKSVINDPIYKENIMKLSRIHHDQPVKPLDRAVFWIEFVMRHKGAKHLRVAAHNLTWIQYHSLDVIAFLLACVATMIFMITKCCLFCFRKLAKTGKKKKRD

Legend:
MEC1 cells [1] = experiment: MTS cell viability assay, MEC1 cells (control or overexpressing UGT2B17); assay type: cell-based, human; conditions: for IC50: Homo sapiens, 72 h; for Fold over control: MEC1, IC50 2B17 / CTRL
Experimental: (§1) Cells were plated at 1 × 10^4 cells/well (MEC1) or at 5 × 10^4 cells/well (JVM2) in 96-well U-bottom tissue culture plates (BD Bioscience, Mississauga, ON, Canada). Drugs were added at time of plating at concentrations ranging from 1 nM to 100 µM (7–9 concentrations per drug), depending on the drug and based on cell viability. MTS cell viability assays (Aqueous One assay, Promega, Madison, WI, USA) were conducted 72 h after treatment initiation according to the manufacturer’s instructions. […] Control cells were treated with corresponding vehicle concentration. […] IC50 were calculated by fitting variable slope non-linear curves to normalised response data from drug treatments using GraphPad Prism v5 (GraphPad Software Inc., La Jolla, CA, USA). Assays were replicated at least three times in triplicates.

JVM2 cells [2] = experiment: MTS cell viability assay, JVM2 cells (control or overexpressing UGT2B17); assay type: cell-based, human; conditions: for IC50: Homo sapiens, JVM-2, 72 h; for Fold over control: JVM2, IC50 2B17 / CTRL
Experimental: as §1

human liver microsomes [3] = experiment: Glucuronidation assay with human liver microsomes; conditions: for Glucuronide (G) products formed: pooled human liver microsomes, MS
Experimental: (§2) Electrospray ionisation was performed in the positive ion mode.

[4] = system: individual human UGT isoforms; experiment: Screening of tissues and individual recombinant UGT1A (n = 8) and UGT2B (n = 6) enzymes by quantitative MS; conditions: liver, kidney, intestine and recombinant UGTs
Experimental: as §2

UGT2B17 expression = experiment: UGT2B17 mRNA by RT-qPCR in drug-treated cell models; assay type: cell-based, human; conditions: MEC1, JVM2 and EHEB cells, drug treatment; P < 0.01
[5] = system: fludarabine glucuronidation; experiment: Fludarabine glucuronidation in drug-treated cell models; assay type: cell-based, human
Experimental: as §2

MEC1 cells [6] = conditions: MEC1, Annexin V/PI, 72 h
Experimental: (§3) Cells plated in 96-well plates at 2 × 10^4 cells/well (MEC1) or 3 × 10^4 cells/well (JVM2) were exposed to varying drug concentrations as above for 72 h. Cells were washed, labelled for 12 min with Annexin V (1:200) and PI (2 µg/ml) in Annexin V binding buffer, then immediately analysed by flow cytometry on a FACSCelesta equipped with a high throughput sampler (BD Bioscience). Annexin V labelling assays were replicated at least twice in duplicates.
(§4) MEC1 (a, c, e) and JVM2 (b, d, f) cells expressing low or high UGT2B17 levels were exposed to
(§5) increasing drug concentrations. Cells were stained with Annexin V (AnV) and propidium iodide (PI) 72
(§6) hours after treatment initiation. The AV-/PI- cells constituted the viable cell population.

JVM2 cells [7] = conditions: JVM2, Annexin V/PI, 72 h
Experimental: as §3, §4, §5, §6

[8] = Glucuronidation assay with human liver microsomes; conditions: human, human liver microsomes, pH 7.5
Experimental: as §2

UGT1A4 = molecular target: T1, UGT1A4 (Homo sapiens, UniProt P22310); experiment: Glucuronidation assay with UGT1A4 supersomes; conditions: for Ki: UGT1A4 inhibitory constant Ki, UGT1A4, inhibitor hecogenin
T1 sequence (P22310 29-534): B1 chain
Experimental: In the absence of commercially available UGT2B11 supersomes, microsomal proteins derived from HEK293 expressing the recombinant UGT2B11 enzyme were used. […] Samples were then stopped by adding 100 µL cold methanol, centrifuged at 16,000×g for 10 min and supernatants analysed by mass spectrometry. The following negative controls were included for each analysis: reaction assays without substrate, without the microsomal fraction and without substrate and microsomal fraction.

human liver microsomes [9] = molecular target: T2, human liver microsomes (Homo sapiens, UniProt P22310); experiment: Glucuronidation assay with human liver microsomes; conditions: UGT1A4 inhibitory constant Ki, Liver, inhibitor hecogenin
T2 sequence (P22310 29-534): B1 chain
Experimental: as §2

[10] = substrate: Nc1nc(F)nc2c1ncn2[C@@H]1O[C@H](CO)[C@@H](O)[C@@H]1O; experiment: cells, lysate or membranes named; conditions: predominant drug-G, pH 7.5, 37.0 °C
[11] = MEC1 cells overexpressing UGT2B17, MTS, read-out: 2B17 IC50
[12] = MEC1 control cells, MTS, read-out: CTRL IC50
[13] = JVM2 cells overexpressing UGT2B17, MTS, read-out: 2B17 IC50
[14] = JVM2 control cells, MTS, read-out: CTRL IC50

Glucuronide (G) products formed (human liver microsomes [3])	Molecule	IC50 (MEC1 cells [1]; [11])	IC50 (MEC1 cells [1]; [12])	Fold over control (MEC1 cells [1])	IC50 (JVM2 cells [2]; [13])	IC50 (JVM2 cells [2]; [14])	Fold over control (JVM2 cells [2])	other results
	C[C@@H]1CC[C@@]2(OC1)O[C@H]1C[C@H]3[C@@H]4CC[C@H]5C[C@@H](O)CC[C@]5(C)[C@H]4CC(=O)[C@]3(C)[C@H]1[C@@H]2C [Hecogenin, hecogenin]							Formation of ibrutinib and idelalisib G1 and G2 abolished (UGT1A4; UGT1A4 and livers, in the presence of hecogenin): ~90%; Ki (UGT1A4; substrate ibrutinib): 2.8 µM; Ki (UGT1A4; substrate idelalisib): 0.6 µM; Ki (human liver microsomes [9]; substrate ibrutinib): 5.8 µM; Ki (human liver microsomes [9]; substrate idelalisib): 0.9 µM
	C=CC(=O)N1CCC[C@@H](n2nc(-c3ccc(Oc4ccccc4)cc3)c3c(N)ncnc32)C1 [Ibrutinib, ibrutinib]	4.13 µM	0.99 µM		8.95 µM	3.64 µM		
	CC[C@H](Nc1ncnc2[nH]cnc12)c1nc2cccc(F)c2c(=O)n1-c1ccccc1 [Idelalisib, idelalisib]	7.4 µM	1.73 µM		2.95 µM	1.79 µM		Fludarabine glucuronidation following drug treatment [5]: increased; Cytotoxicity at clinically relevant concentrations (MEC1 cells [6]): low and no cytotoxicity; Cytotoxicity at clinically relevant concentrations (JVM2 cells [7]): low and no cytotoxicity
at least one G product	CC1(C)CCC(CN2CCN(c3ccc(C(=O)NS(=O)(=O)c4ccc(NCC5CCOCC5)c([N+](=O)[O-])c4)c(Oc4cnc5[nH]ccc5c4)c3)CC2)=C(c2ccc(Cl)cc2)C1 [Venetoclax, venetoclax]	4.16 µM	2.22 µM	1.87	2.94 µM	4.06 µM	0.72	
at least one G product	CC#CC(=O)N1CCC[C@H]1c1nc(-c2ccc(C(=O)Nc3ccccn3)cc2)c2c(N)nccn12 [acalibrutinib, acalabrutinib]							
at least one G product	CCS(=O)(=O)N1CCN(c2ccc(Nc3ncc(C(N)=O)c(NC4CC4)n3)cc2)CC1 [cerdulatinib]							UGT enzyme(s) involved in glucuronidation of the drug [4]: UGT2B17 plays a role in the inactivation
at least one G product	C[C@H](Nc1ncnc2[nH]cnc12)c1cc2cccc(Cl)c2c(=O)n1-c1ccccc1 [duvelisib]							
	B1							Km ([10]; other: UGT1A4): 1020 µM; Vmax ([10]; other: UGT1A4): 0.05 pmol/min/mg protein
	B2							Km ([10]; other: UGT2B17): 949 µM; Vmax ([10]; other: UGT2B17): 0.01 pmol/min/mg protein

Molecule	Glucuronide (G) products formed (human liver microsomes [3])	IC50 (MEC1 cells [1]; [11])	IC50 (MEC1 cells [1]; [12])	Fold over control (MEC1 cells [1])	IC50 (JVM2 cells [2]; [13])	IC50 (JVM2 cells [2]; [14])	Fold over control (JVM2 cells [2])	other results
Cn1c(CCCC(=O)O)nc2cc(N(CCCl)CCCl)ccc21 [Bendamustine, bendamustine]	at least one G product	76 µM	60.1 µM	1.27	62.8 µM	54.2 µM	1.16	
O=C(O)CCCc1ccc(N(CCCl)CCCl)cc1 [Chlorambucil, chlorambucil]	at least one G product	12.3 µM	7.99 µM	1.55	8.64 µM	10.4 µM	0.83	UGT enzyme(s) involved in glucuronidation of the drug [4]: UGT2B17 plays a role in the inactivation
Nc1nc(F)nc2c1ncn2[C@@H]1O[C@H](CO)[C@@H](O)[C@@H]1O [Fludarabine, fludarabine]	two glucuronides	58.8 µM	29.3 µM	2.01	15.1 µM	9.08 µM	1.66	Induction of UGT2B17 expression (UGT2B17 expression): significantly induced; Fludarabine glucuronidation following drug treatment [5]: increased; UGT enzyme(s) involved in glucuronidation of the drug [4]: UGT2B17 and UGT1A4 were the main conjugating enzymes; Concentration at which cytotoxicity was observed (MEC1 cells [6]): > 40 µM; Cytotoxicity at clinically relevant concentrations (MEC1 cells [6]): no cytotoxicity; Concentration at which cytotoxic (JVM2 cells [7]): > 5 µM; Cytotoxicity at clinically relevant concentrations (JVM2 cells [7]): no cytotoxicity; Velocity Vmax (human liver microsomes [3]; Liver, predominant drug-G, velocity at highest substrate concentration): 0.12 pmol/min/mg protein; Km at 6 h [8]: 878 µM
